Results as given in ChEMBL document CHEMBL1139874, “New diphenylacetylenes as probes for positron emission tomographic imaging of amyloid plaques” (J Med Chem, 2007).

Key:
[1] = target: Amyloid-beta precursor protein (Homo sapiens, UniProt P05067); experiment: Displacement of [125I]IMPY from human beta amyloid plaque in brain homogenates; assay type: tissue-based
[2] = test system: Kidney; experiment: Biodistribution in ICR mouse kidney at 5 to 10 uCi, iv after 30 mins; assay type: ADME, organism-based; settings: in vivo, 0.5 h
[3] = test system: Spleen; experiment: Biodistribution in ICR mouse spleen at 5 to 10 uCi, iv after 30 mins; assay type: ADME, organism-based; settings: in vivo, 0.5 h
[4] = Partition coefficient, log P at pH 7.4; assay type: physicochemical; settings: octanol/water
[5] = test system: Muscle tissue; experiment: Biodistribution in ICR mouse muscle at 5 to 10 uCi, iv after 1 hr; assay type: ADME, organism-based; settings: in vivo
[6] = test system: Liver; experiment: Biodistribution in ICR mouse liver at 5 to 10 uCi, iv after 30 mins; assay type: ADME, organism-based; settings: in vivo, 0.5 h
[7] = test system: Spleen; experiment: Biodistribution in ICR mouse spleen at 5 to 10 uCi, iv after 2 hrs; assay type: ADME, organism-based; settings: in vivo
[8] = test system: Brain; experiment: Biodistribution in ICR mouse brain at 5 to 10 uCi, iv after 30 mins; assay type: ADME, organism-based; settings: in vivo, 0.5 h
[9] = test system: Muscle tissue; experiment: Biodistribution in ICR mouse muscle at 5 to 10 uCi, iv after 2 mins; assay type: ADME, organism-based; settings: in vivo
[10] = test system: Blood; experiment: Biodistribution in ICR mouse blood at 5 to 10 uCi, iv after 2 mins; assay type: ADME, organism-based; settings: in vivo
[11] = test system: Zone of skin; experiment: Biodistribution in ICR mouse skin at 5 to 10 uCi, iv after 2 hrs; assay type: ADME, organism-based; settings: in vivo
[12] = test system: Kidney; experiment: Biodistribution in ICR mouse kidney at 5 to 10 uCi, iv after 2 hrs; assay type: ADME, organism-based; settings: in vivo
[13] = test system: Spleen; experiment: Biodistribution in ICR mouse spleen at 5 to 10 uCi, iv after 1 hr; assay type: ADME, organism-based; settings: in vivo
[14] = test system: Kidney; experiment: Biodistribution in ICR mouse kidney at 5 to 10 uCi, iv after 2 mins; assay type: ADME, organism-based; settings: in vivo
[15] = test system: Muscle tissue; experiment: Biodistribution in ICR mouse muscle at 5 to 10 uCi, iv after 30 mins; assay type: ADME, organism-based; settings: in vivo, 0.5 h
[16] = test system: Zone of skin; experiment: Biodistribution in ICR mouse skin at 5 to 10 uCi, iv after 30 mins; assay type: ADME, organism-based; settings: in vivo, 0.5 h
[17] = test system: Lung; experiment: Biodistribution in ICR mouse lung at 5 to 10 uCi, iv after 30 mins; assay type: ADME, organism-based; settings: in vivo, 0.5 h
[18] = test system: Liver; experiment: Biodistribution in ICR mouse liver at 5 to 10 uCi, iv after 2 hrs; assay type: ADME, organism-based; settings: in vivo
[19] = test system: Liver; experiment: Biodistribution in ICR mouse liver at 5 to 10 uCi, iv after 2 mins; assay type: ADME, organism-based; settings: in vivo
[20] = test system: Heart; experiment: Biodistribution in ICR mouse heart at 5 to 10 uCi, iv after 2 hrs; assay type: ADME, organism-based; settings: in vivo
[21] = test system: Heart; experiment: Biodistribution in ICR mouse heart at 5 to 10 uCi, iv after 2 mins; assay type: ADME, organism-based; settings: in vivo
[22] = test system: Blood; experiment: Biodistribution in ICR mouse blood at 5 to 10 uCi, iv after 30 mins; assay type: ADME, organism-based; settings: in vivo, 0.5 h
[23] = test system: Liver; experiment: Biodistribution in ICR mouse liver at 5 to 10 uCi, iv after 1 hr; assay type: ADME, organism-based; settings: in vivo
[24] = test system: Lung; experiment: Biodistribution in ICR mouse lung at 5 to 10 uCi, iv after 2 hrs; assay type: ADME, organism-based; settings: in vivo
[25] = test system: Brain; experiment: Biodistribution in ICR mouse brain at 5 to 10 uCi, iv after 2 mins; assay type: ADME, organism-based; settings: in vivo
[26] = test system: Muscle tissue; experiment: Biodistribution in ICR mouse muscle at 5 to 10 uCi, iv after 2 hrs; assay type: ADME, organism-based; settings: in vivo
[27] = test system: Heart; experiment: Biodistribution in ICR mouse heart at 5 to 10 uCi, iv after 30 mins; assay type: ADME, organism-based; settings: in vivo, 0.5 h
[28] = test system: Zone of skin; experiment: Biodistribution in ICR mouse skin at 5 to 10 uCi, iv after 2 mins; assay type: ADME, organism-based; settings: in vivo
[29] = test system: Brain; experiment: Biodistribution in ICR mouse brain at 5 to 10 uCi, iv after 2 hrs; assay type: ADME, organism-based; settings: in vivo
[30] = test system: Kidney; experiment: Biodistribution in ICR mouse kidney at 5 to 10 uCi, iv after 1 hr; assay type: ADME, organism-based; settings: in vivo
[31] = test system: Brain; experiment: Biodistribution in ICR mouse brain at 5 to 10 uCi, iv after 1 hr; assay type: ADME, organism-based; settings: in vivo
[32] = test system: Heart; experiment: Biodistribution in ICR mouse heart at 5 to 10 uCi, iv after 1 hr; assay type: ADME, organism-based; settings: in vivo
[33] = test system: Blood; experiment: Biodistribution in ICR mouse blood at 5 to 10 uCi, iv after 2 hrs; assay type: ADME, organism-based; settings: in vivo
[34] = test system: Bone; experiment: Biodistribution in ICR mouse bone at 5 to 10 uCi, iv after 30 mins; assay type: ADME, organism-based, Bone element; settings: in vivo, 0.5 h
[35] = test system: Bone; experiment: Biodistribution in ICR mouse bone at 5 to 10 uCi, iv after 2 mins; assay type: ADME, organism-based, Bone element; settings: in vivo
[36] = test system: Lung; experiment: Biodistribution in ICR mouse lung at 5 to 10 uCi, iv after 2 mins; assay type: ADME, organism-based; settings: in vivo
[37] = test system: Zone of skin; experiment: Biodistribution in ICR mouse skin at 5 to 10 uCi, iv after 1 hr; assay type: ADME, organism-based; settings: in vivo
[38] = test system: Bone; experiment: Biodistribution in ICR mouse bone at 5 to 10 uCi, iv after 2 hrs; assay type: ADME, organism-based, Bone element; settings: in vivo
[39] = test system: Bone; experiment: Biodistribution in ICR mouse bone at 5 to 10 uCi, iv after 1 hr; assay type: ADME, organism-based, Bone element; settings: in vivo
[40] = test system: Blood; experiment: Biodistribution in ICR mouse blood at 5 to 10 uCi, iv after 1 hr; assay type: ADME, organism-based; settings: in vivo
[41] = test system: Spleen; experiment: Biodistribution in ICR mouse spleen at 5 to 10 uCi, iv after 2 mins; assay type: ADME, organism-based; settings: in vivo
[42] = test system: Lung; experiment: Biodistribution in ICR mouse lung at 5 to 10 uCi, iv after 1 hr; assay type: ADME, organism-based; settings: in vivo

Amyloid-beta precursor protein, sequence (P05067 whole entry): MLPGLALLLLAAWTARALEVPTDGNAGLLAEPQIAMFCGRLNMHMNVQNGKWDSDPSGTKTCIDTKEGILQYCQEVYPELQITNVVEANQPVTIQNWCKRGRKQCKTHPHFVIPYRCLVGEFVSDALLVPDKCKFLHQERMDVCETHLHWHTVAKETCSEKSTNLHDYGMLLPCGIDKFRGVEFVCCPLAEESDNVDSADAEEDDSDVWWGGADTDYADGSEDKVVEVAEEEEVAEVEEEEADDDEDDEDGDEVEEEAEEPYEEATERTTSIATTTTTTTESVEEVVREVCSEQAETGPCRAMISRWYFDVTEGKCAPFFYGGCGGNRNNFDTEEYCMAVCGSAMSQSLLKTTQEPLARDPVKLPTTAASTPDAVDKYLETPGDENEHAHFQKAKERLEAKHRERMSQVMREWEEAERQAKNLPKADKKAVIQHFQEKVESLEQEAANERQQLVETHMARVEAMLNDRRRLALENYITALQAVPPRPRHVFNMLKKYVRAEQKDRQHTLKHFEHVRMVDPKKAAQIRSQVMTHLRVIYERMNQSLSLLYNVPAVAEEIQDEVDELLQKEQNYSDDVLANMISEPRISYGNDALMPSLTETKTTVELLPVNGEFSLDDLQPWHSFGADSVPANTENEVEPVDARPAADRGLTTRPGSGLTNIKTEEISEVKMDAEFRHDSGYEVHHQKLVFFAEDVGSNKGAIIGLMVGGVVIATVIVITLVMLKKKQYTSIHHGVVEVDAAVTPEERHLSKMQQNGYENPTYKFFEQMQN

Compound: Nc1ccc(C#Cc2ccc(OCCOCCOCCO)cc2)cc1
- Ki [1]: 67.6 nM

Compound: CNc1ccc(C#Cc2ccc(OCCOCC[18F])cc2)cc1
- Drug uptake [2]: 4.78 % ID/g
- Drug uptake [3]: 3.6 % ID/g
- logD [4]: 3.48
- Drug uptake [5]: 1.38 % ID/g
- Drug uptake [6]: 18.3 % ID/g
- Drug uptake [7]: 3.3 % ID/g
- Drug uptake [8]: 1.03 % ID/g
- Drug uptake [9]: 0.79 % ID/g
- Drug uptake [10]: 7.89 % ID/g
- Drug uptake [11]: 2.04 % ID/g
- Drug uptake [12]: 5.55 % ID/g
- Drug uptake [13]: 3.78 % ID/g
- Drug uptake [14]: 5.55 % ID/g
- Drug uptake [15]: 1.26 % ID/g
- Drug uptake [16]: 2.11 % ID/g
- Drug uptake [17]: 4.77 % ID/g
- Drug uptake [18]: 11.7 % ID/g
- Drug uptake [19]: 29.6 % ID/g
- Drug uptake [20]: 2.6 % ID/g
- Drug uptake [21]: 4.73 % ID/g
- Drug uptake [22]: 7.9 % ID/g
- Drug uptake [23]: 15.6 % ID/g
- Drug uptake [24]: 4.67 % ID/g
- Drug uptake [25]: 4.42 % ID/g
- Drug uptake [26]: 1.26 % ID/g
- Drug uptake [27]: 2.84 % ID/g
- Drug uptake [28]: 0.94 % ID/g
- Drug uptake [29]: 0.82 % ID/g
- Drug uptake [30]: 6.17 % ID/g
- Drug uptake [31]: 0.99 % ID/g
- Drug uptake [32]: 3.54 % ID/g
- Drug uptake [33]: 7.84 % ID/g
- Drug uptake [34]: 1.46 % ID/g
- Drug uptake [35]: 1.54 % ID/g
- Drug uptake [36]: 6.57 % ID/g
- Drug uptake [37]: 2.55 % ID/g
- Drug uptake [38]: 2.07 % ID/g
- Drug uptake [39]: 1.92 % ID/g
- Drug uptake [40]: 10.3 % ID/g
- Drug uptake [41]: 3.74 % ID/g
- Drug uptake [42]: 6.01 % ID/g

Compound: CNc1ccc(C#Cc2ccc(O)cc2)cc1
- Ki [1]: 1.5 nM

Compound: COc1ccc(C#Cc2ccc(O)cc2)cc1
- Ki [1]: 2.9 nM

Compound: CN(C)c1ccc(C#Cc2ccc(OCCOCC[18F])cc2)cc1
- Drug uptake [2]: 4.75 % ID/g
- Drug uptake [3]: 2.94 % ID/g
- logD [4]: 3.12
- Drug uptake [5]: 1.21 % ID/g
- Drug uptake [6]: 11.2 % ID/g
- Drug uptake [7]: 2.31 % ID/g
- Drug uptake [8]: 3.69 % ID/g
- Drug uptake [9]: 0.91 % ID/g
- Drug uptake [10]: 7.33 % ID/g
- Drug uptake [11]: 1.67 % ID/g
- Drug uptake [12]: 4.16 % ID/g
- Drug uptake [13]: 2.38 % ID/g
- Drug uptake [14]: 12.9 % ID/g
- Drug uptake [15]: 1.38 % ID/g
- Drug uptake [16]: 2.23 % ID/g
- Drug uptake [17]: 4.66 % ID/g
- Drug uptake [18]: 8.85 % ID/g
- Drug uptake [19]: 19.3 % ID/g
- Drug uptake [20]: 2.11 % ID/g
- Drug uptake [21]: 10.5 % ID/g
- Drug uptake [22]: 6.13 % ID/g
- Drug uptake [23]: 9.99 % ID/g
- Drug uptake [24]: 3.38 % ID/g
- Drug uptake [25]: 5.41 % ID/g
- Drug uptake [26]: 1.03 % ID/g
- Drug uptake [27]: 2.82 % ID/g
- Drug uptake [28]: 0.85 % ID/g
- Drug uptake [29]: 1.34 % ID/g
- Drug uptake [30]: 4.79 % ID/g
- Drug uptake [31]: 2.06 % ID/g
- Drug uptake [32]: 2.48 % ID/g
- Drug uptake [33]: 5.17 % ID/g
- Drug uptake [34]: 1.41 % ID/g
- Drug uptake [35]: 1.78 % ID/g
- Drug uptake [36]: 11.1 % ID/g
- Drug uptake [37]: 1.71 % ID/g
- Drug uptake [38]: 1.65 % ID/g
- Drug uptake [39]: 1.36 % ID/g
- Drug uptake [40]: 5.68 % ID/g
- Drug uptake [41]: 5.12 % ID/g
- Drug uptake [42]: 3.82 % ID/g

Compound: Nc1ccc(C#Cc2ccc(O)cc2)cc1
- Ki [1]: 106 nM

Compound: Nc1ccc(C#Cc2ccc(OCCOCCF)cc2)cc1
- Ki [1]: 12 nM

Compound: CN(C)c1ccc(C#Cc2ccc(OCCOCCO)cc2)cc1
- Ki [1]: 3.8 nM

Compound: CN(C)c1ccc(C#Cc2ccc(OCCOCCOCCO)cc2)cc1
- Ki [1]: 3.4 nM

Compound: CNc1ccc(C#Cc2ccc(OCCOCCOCC[18F])cc2)cc1
- Drug uptake [2]: 2.9 % ID/g
- Drug uptake [3]: 1.22 % ID/g
- logD [4]: 3.07
- Drug uptake [5]: 0.62 % ID/g
- Drug uptake [6]: 14.8 % ID/g
- Drug uptake [7]: 1.02 % ID/g
- Drug uptake [8]: 0.42 % ID/g
- Drug uptake [9]: 1.97 % ID/g
- Drug uptake [10]: 3.28 % ID/g
- Drug uptake [11]: 0.6 % ID/g
- Drug uptake [12]: 1.8 % ID/g
- Drug uptake [13]: 0.95 % ID/g
- Drug uptake [14]: 4.74 % ID/g
- Drug uptake [15]: 0.61 % ID/g
- Drug uptake [16]: 1.4 % ID/g
- Drug uptake [17]: 2.1 % ID/g
- Drug uptake [18]: 9.14 % ID/g
- Drug uptake [19]: 25.8 % ID/g
- Drug uptake [20]: 0.96 % ID/g
- Drug uptake [21]: 4.21 % ID/g
- Drug uptake [22]: 3.28 % ID/g
- Drug uptake [23]: 10.2 % ID/g
- Drug uptake [24]: 1.72 % ID/g
- Drug uptake [25]: 4.55 % ID/g
- Drug uptake [26]: 0.39 % ID/g
- Drug uptake [27]: 1.4 % ID/g
- Drug uptake [28]: 1.24 % ID/g
- Drug uptake [29]: 0.38 % ID/g
- Drug uptake [30]: 2.4 % ID/g
- Drug uptake [31]: 0.37 % ID/g
- Drug uptake [32]: 1.24 % ID/g
- Drug uptake [33]: 3.17 % ID/g
- Drug uptake [34]: 0.66 % ID/g
- Drug uptake [35]: 1.5 % ID/g
- Drug uptake [36]: 4.64 % ID/g
- Drug uptake [37]: 0.95 % ID/g
- Drug uptake [38]: 0.82 % ID/g
- Drug uptake [39]: 0.65 % ID/g
- Drug uptake [40]: 3.22 % ID/g
- Drug uptake [41]: 2.69 % ID/g
- Drug uptake [42]: 2.04 % ID/g

Compound: C(#Cc1ccccc1)c1ccccc1 [DIPHENYLACETYLENE]
- Ki [1]: 175 nM
